22 compounds from patent publication US9701689B2, “Substituted pyridines and pyridazines as CCR10 receptor inhibitors” (KYOWA HAKKO KIRIN CO., LTD., priority 2012, dated 2017) can be followed below.

The experiment deals with T1, human CCR10 (Homo sapiens, UniProt P46092).
T1 construct: expressed in transfected cells; host or cells: KJMGER8 cells (Namalwa cell-derived line), beta-estradiol-induced; hCCR10G16 cells
T1 sequence (P46092 1-362): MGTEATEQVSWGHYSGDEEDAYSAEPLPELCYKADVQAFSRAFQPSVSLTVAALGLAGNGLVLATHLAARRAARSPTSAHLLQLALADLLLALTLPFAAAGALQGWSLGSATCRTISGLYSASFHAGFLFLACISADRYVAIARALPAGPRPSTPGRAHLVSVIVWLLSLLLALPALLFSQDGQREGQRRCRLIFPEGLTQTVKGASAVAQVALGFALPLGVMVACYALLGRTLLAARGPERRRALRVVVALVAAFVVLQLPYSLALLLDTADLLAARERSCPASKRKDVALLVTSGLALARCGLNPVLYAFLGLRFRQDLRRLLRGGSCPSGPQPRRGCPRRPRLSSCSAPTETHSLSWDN
The experiment is described as follows: CCR10 antagonistic effect: calcium assay of human CCR10 (CTACK-induced increase of intracellular calcium in hCCR10G16 cells). It is filed as cell-based. The conditions noted are these: at a concentration of not more than 1000 nmol/L; human CCR10-expressing hCCR10G16 cells, 300 nmol/L CTACK added; read-out: inhibition of increase in the calcium ion concentration. The method in brief:
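KJMGER8-derived hCCR10G16 cells (CCR10 plus Gα16, induced 24 h with 10 nmol/L β-estradiol), Fluo-3 loaded, preincubated with compound 30 min at 37 °C. Stimulated with CTACK (300 nmol/L solution before addition); calcium read ~5 min by FDSS, max−min fluorescence; % inhibition vs control.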

The structures appear in SMILES notation. Some results are limits rather than exact numbers.

As for `CC(=O)c1ccc(C)c(NC2=CC=NC(S(N)(=O)=O)C2(Cl)C(=O)N2CCC(c3ccc(F)cc3)CC2)c1` (stereo not shown) [Compound 303, 4-(5-acetyl-2-methylphenylamino)-3-chloro-3-[4-(4-fluorophenyl)piperidine-1-carbonyl]pyridine-2-sulfonamide], the inhibition at up to 1 µM was no less than 50%.

With `COC1(c2ccc(F)cc2)CCN(C(=O)c2cnc(S(N)(=O)=O)c(C)c2Nc2ccccc2C)CC1` [Compound 304, 5-[4-(4-fluorophenyl)-4-methoxypiperidine-1-carbonyl]-3-methyl-4-(o-tolylamino)pyridine-2-sulfonamide], the inhibition at up to 1 µM is no less than 50%.

Consider `Cc1ccccc1Nc1c(C(=O)N2CCC3(CC2)COc2ccccc23)cnc(S(N)(=O)=O)c1C` [Compound 305, 3-methyl-5-(2H-spiro[benzofuran-3,4′-piperidin]-1′-ylcarbonyl)-4-(o-tolylamino)pyridine-2-sulfonamide], for which the inhibition at up to 1 µM is no less than 50%.

Turning to `COC1(c2ccc(F)cc2)CCN(C(=O)c2cnc(S(N)(=O)=O)c(Cl)c2Nc2cccc(Cl)c2)CC1` [Compound 306, 3-chloro-4-(3-chlorophenylamino)-5-[4-(4-fluorophenyl)-4-methoxypiperidine-1-carbonyl]pyridine-2-sulfonamide], the inhibition at up to 1 µM was no less than 50%.

Turning to `NS(=O)(=O)c1ncc(C(=O)N2CCC3(CC2)COc2ccccc23)c(Nc2cccc(Cl)c2)c1Cl` [Compound 307, 3-chloro-4-(3-chlorophenylamino)-5-(2H-spiro[benzofuran-3,4′-piperidine]-1′-ylcarbonyl)pyridine-2-sulfonamide], the inhibition at up to 1 µM was no less than 50%.

With `NS(=O)(=O)c1ncc(C(=O)N2CCC(c3ccccc3)CC2)c(Nc2cccc(Cl)c2)c1Cl` [Compound 308, 3-chloro-4-(3-chlorophenylamino)-5-(4-phenylpiperidine-1-carbonyl)pyridine-2-sulfonamide], the inhibition at up to 1 µM is no less than 50%.

Consider `Cc1ccc(Cl)cc1Nc1c(C(=O)N2CCC(c3ccccc3)CC2)cnc(S(N)(=O)=O)c1Cl` [Compound 309, 3-chloro-4-(5-chloro-2-methylphenylamino)-5-(4-phenylpiperidine-1-carbonyl)pyridine-2-sulfonamide], for which the inhibition at up to 1 µM is no less than 50%.

As to `CCc1ccc(Nc2c(C(=O)N3CCC(c4ccc(F)cc4)CC3)cnc(S(N)(=O)=O)c2Cl)cc1` [Compound 310, 3-chloro-4-(4-ethylphenylamino)-5-[4-(4-fluorophenyl)piperidine-1-carbonyl]pyridine-2-sulfonamide], the inhibition at up to 1 µM is no less than 50%.

In the case of `Cc1ccc(C(F)(F)F)cc1Nc1c(C(=O)N2CCC(c3ccc(F)cc3)CC2)cnc(S(N)(=O)=O)c1Cl` [Compound 311, 3-chloro-5-[4-(4-fluorophenyl)piperidine-1-carbonyl]-4-[2-methyl-5-(trifluoromethyl)phenylamino]pyridine-2-sulfonamide], the inhibition at up to 1 µM is no less than 50%.

Regarding `NS(=O)(=O)c1ncc(C(=O)N2CCC(c3ccc(F)cc3)CC2)c(Nc2ccc(OC(F)F)cc2)c1Cl` [Compound 312, 3-chloro-4-[4-(difluoromethoxy)phenylamino]-5-[4-(4-fluorophenyl)piperidine-1-carbonyl]pyridine-2-sulfonamide], the inhibition at up to 1 µM is no less than 50%.

Turning to `COC1(c2ccc(F)cc2)CCN(C(=O)c2cnc(S(N)(=O)=O)c(Cl)c2Nc2cc(Cl)ccc2C)CC1` [Compound 313, 3-chloro-4-(5-chloro-2-methylphenylamino)-5-[4-(4-fluorophenyl)-4-methoxypiperidine-1-carbonyl]pyridine-2-sulfonamide], the inhibition at up to 1 µM is no less than 50%.

For `Cc1ccc(Cl)cc1Nc1c(C(=O)N2CC(c3ccc(F)cc3)C2)cnc(S(N)(=O)=O)c1Cl` [Compound 314, 3-chloro-4-(5-chloro-2-methylphenylamino)-5-[3-(4-fluorophenyl)azetidine-1-carbonyl]pyridine-2-sulfonamide], the inhibition at up to 1 µM is no less than 50%.

For the compound `Cc1cc(NS(=O)(=O)c2ncc(C(=O)N3CCC(c4ccc(F)cc4)CC3)c(Nc3cc(F)ccc3F)c2C)sn1` [Compound 315, 4-(2,5-difluorophenylamino)-5-[4-(4-fluorophenyl)piperidine-1-carbonyl]-3-methyl-N-(3-methylisothiazol-5-yl)pyridine-2-sulfonamide], the inhibition at up to 1 µM is no less than 50%.

In the case of `Cc1cc(NS(=O)(=O)c2ncc(C(=O)N3CCC(c4ccc(F)cc4)CC3)c(Nc3ccc(F)cc3F)c2C)sn1` [Compound 316, 4-(2,4-difluorophenylamino)-5-[4-(4-fluorophenyl)piperidine-1-carbonyl]-3-methyl-N-(3-methylisothiazol-5-yl)pyridine-2-sulfonamide], the inhibition at up to 1 µM was no less than 50%.

Turning to `Cc1ccccc1Nc1c(C(=O)N2CCC(c3ccc(F)cc3)CC2)cnc(S(=O)(=O)Nc2ccn(C)n2)c1Cl` [Compound 317, 3-chloro-5-[4-(4-fluorophenyl)piperidine-1-carbonyl]-N-(1-methyl-1H-pyrazol-3-yl)-4-(o-tolylamino)pyridine-2-sulfonamide], the inhibition at up to 1 µM is no less than 50%.

In the case of `Cc1cc([N+](=O)[O-])ccc1Nc1c(C(=O)N2CCC(c3ccc(F)cc3)CC2)cnc(S(N)(=O)=O)c1Cl` [Compound 318, 3-chloro-5-[4-(4-fluorophenyl)piperidine-1-carbonyl]-4-(2-methyl-4-nitrophenylamino)pyridine-2-sulfonamide], the inhibition at up to 1 µM was no less than 50%.

With `NS(=O)(=O)c1ncc(C(=O)N2CCC(c3ccc(F)cc3)CC2)c(Nc2cccc(Br)c2)c1Cl` [Compound 319, 4-(3-bromophenylamino)-3-chloro-5-[4-(4-fluorophenyl)piperidine-1-carbonyl]pyridine-2-sulfonamide], the inhibition at up to 1 µM is no less than 50%.

For `Cc1cc(C#N)c(Nc2c(C(=O)N3CCC(c4ccc(F)cc4)CC3)cnc(S(N)(=O)=O)c2Cl)cc1C` [Compound 320, 3-chloro-4-(2-cyano-4,5-dimethylphenylamino)-5-[4-(4-fluorophenyl)piperidine-1-carbonyl]pyridine-2-sulfonamide], the inhibition at up to 1 µM was no less than 50%.

As for `COc1ccc(C#N)c(Nc2c(C(=O)N3CCC(c4ccc(F)cc4)CC3)cnc(S(N)(=O)=O)c2Cl)c1` [Compound 321, 3-chloro-4-(2-cyano-5-methoxyphenylamino)-5-[4-(4-fluorophenyl)piperidine-1-carbonyl]pyridine-2-sulfonamide], the inhibition at up to 1 µM was no less than 50%.

Regarding `N#Cc1ccc([N+](=O)[O-])cc1Nc1c(C(=O)N2CCC(c3ccc(F)cc3)CC2)cnc(S(N)(=O)=O)c1Cl` [Compound 322, 3-chloro-4-(2-cyano-5-nitrophenylamino)-5-[4-(4-fluorophenyl)piperidine-1-carbonyl]pyridine-2-sulfonamide], the inhibition at up to 1 µM was no less than 50%.

`Cc1ccc(Cl)cc1Nc1c(C(=O)N2CCC3(CC2)COc2ccccc23)cnc(S(N)(=O)=O)c1Cl` [Compound 323, 3-chloro-4-(5-chloro-2-methylphenylamino)-5-(2H-spiro[benzofuran-3,4′-piperidin]-1′-ylcarbonyl)pyridine-2-sulfonamide]: the inhibition at up to 1 µM is no less than 50%.

For `COc1ccc(Cl)c(Nc2c(C(=O)N3CCC(c4ccc(F)cc4)CC3)cnc(S(N)(=O)=O)c2Cl)c1` [Compound 324, 3-chloro-4-(2-chloro-5-methoxyphenylamino)-5-[4-(4-fluorophenyl)piperidine-1-carbonyl]pyridine-2-sulfonamide], the inhibition at up to 1 µM is no less than 50%.
